Laboratory results published in US9474734B2, “Compounds for treating inflammation and pain” (Olatec Industries LLC, priority 2012, dated 2016).

Test system: arachidonic acid-induced ear swelling
Test: topical arachidonic acid-induced ear swelling model in mice
Type: in vivo
Details: male ICR mice; topical application 30 min before and 15 min after arachidonic acid; measured at 90 minutes; indomethacin 14 mM (0.1 mg/20 μL), 3-(methylthio)propionitrile 375 mM (1.0 mg/20 μL)
Procedure: The test compounds, indomethacin (positive control), and vehicle were evaluated for anti-inflammatory activity in a topical arachidonic acid-induced ear swelling model in mice. Male ICR mice weighing 22±2 g were used and randomly divided; each group had 10 mice. Arachidonic Acid (0.5 mg in 20 μl of acetone:ethanol/1:1) was applied topically to the anterior and posterior surfaces of the right ear of each mice. Test substances and vehicle, as listed in Table 1 were similarly applied 30 min before and 15 min after arachidonic acid application. The thickness of the right ear and the left ear was measured and the difference calculated as an indication of the inflammation in the right ear. Ear swelling was measured by a Dyer model micrometer gauge at 60 and 90 minutes after arachidonic acid application as an index of inflammation. Percent inhibition was calculated according to the formula: Ic−It/Ic×100, where Ic and It refers to increase of ear thickness (mm) in control and treated mice, respectively. ANOVA and Dunnett's test were employed to ascertain significant difference between vehicle control and treated groups. Significance is set at P<0.05 level.

## CSCCC#N [3-(methylthio)propionitrile]
  % Inhibition of ear swelling: 43%

## COc1ccc2c(c1)c(CC(=O)O)c(C)n2C(=O)c1ccc(Cl)cc1 [Indomethacin]
  % Inhibition of ear swelling: 53%
